Source: paper PMC11219871, “Epigenetic-based differentiation therapy for Acute Myeloid Leukemia” (Nature Communications, 2024)
“And” between values parts separate entries of the source, which are not always exact repeats. Identical values can stand only once.

Key:
cytochrome P450 1A2 = target: T1, cytochrome P450 1A2 (Homo sapiens, UniProt P05177); test: CYP inhibition in human liver microsomes; assay type: in vitro ADME; conditions: 10 µM
T1 construct: Corning Cat # 452117); tissue Corning 452117; host or cells: human liver microsomes
T1 sequence (P05177 whole entry): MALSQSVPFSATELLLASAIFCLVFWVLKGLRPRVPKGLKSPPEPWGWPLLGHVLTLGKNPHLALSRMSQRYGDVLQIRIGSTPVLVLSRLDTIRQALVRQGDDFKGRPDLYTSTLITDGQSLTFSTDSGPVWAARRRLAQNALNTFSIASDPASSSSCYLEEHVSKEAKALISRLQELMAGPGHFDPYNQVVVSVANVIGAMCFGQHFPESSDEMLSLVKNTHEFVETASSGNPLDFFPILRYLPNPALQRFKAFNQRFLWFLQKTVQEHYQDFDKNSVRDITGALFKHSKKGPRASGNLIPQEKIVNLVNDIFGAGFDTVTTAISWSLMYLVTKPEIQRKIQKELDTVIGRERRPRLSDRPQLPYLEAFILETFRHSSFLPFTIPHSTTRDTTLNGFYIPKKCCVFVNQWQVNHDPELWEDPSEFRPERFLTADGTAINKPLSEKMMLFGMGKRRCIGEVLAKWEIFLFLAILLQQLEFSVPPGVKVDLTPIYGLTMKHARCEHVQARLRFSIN
Method: (§1) This study was conducted at Wuxi (http://www.wuxi.com/). The inhibitory effects of CM-444 and CM-1758 on five human cytochrome P450s (1A2, 2C9, 2C19, 2D6 and 3A4) were evaluated in human liver microsomes. Test compounds (10 µM final concentration) or control compounds (α-naphthoflavone, sulfaphenazole, (+)-N-3-benzylnirvanol, quinidine, ketoconazole; 3-µM final concentration), and the corresponding substrates for each P450 isoform (1A2: phenacetin, 10-µM final concentration; 2C9: diclofenac, 5-µM final concentration; 2C19: S-mephenytoin, 30-µM final concentration, 2D6: dextromethorphan, 5-µM final concentration; 3A4: midazolam, 2-µM final concentration) were incubated with human liver microsomes (0.2-mg/mL final concentration; Corning Cat # 452117) and NADPH cofactor (1-mM final concentration, Chem-impex Cat # 00616) for 10 min at 37 °C. The reaction was terminated by adding 400 µL of cold stop solution (200 ng/mL tolbutamide and labetalol in acetonitrile), and the samples were centrifuged at 1520 g for 20 min. Next, 200-μL aliquots of supernatants were diluted with 100 μL of ultra-pure water and shaken for 10 min. The samples were analyzed by LC-MS/MS using an analyte/internal standard peak area ratio. Test compounds and positive controls were tested in duplicate. The percentage of inhibition was calculated as the ratio of substrate metabolite detected in treated and non-treated wells.

cytochrome P450 2C19 = target: T2, cytochrome P450 2C19 (Homo sapiens, UniProt P33261); test: CYP inhibition in human liver microsomes; assay type: in vitro ADME; conditions: 10 µM
T2 construct: Corning Cat # 452117); tissue Corning 452117; host or cells: human liver microsomes
T2 sequence (P33261 whole entry): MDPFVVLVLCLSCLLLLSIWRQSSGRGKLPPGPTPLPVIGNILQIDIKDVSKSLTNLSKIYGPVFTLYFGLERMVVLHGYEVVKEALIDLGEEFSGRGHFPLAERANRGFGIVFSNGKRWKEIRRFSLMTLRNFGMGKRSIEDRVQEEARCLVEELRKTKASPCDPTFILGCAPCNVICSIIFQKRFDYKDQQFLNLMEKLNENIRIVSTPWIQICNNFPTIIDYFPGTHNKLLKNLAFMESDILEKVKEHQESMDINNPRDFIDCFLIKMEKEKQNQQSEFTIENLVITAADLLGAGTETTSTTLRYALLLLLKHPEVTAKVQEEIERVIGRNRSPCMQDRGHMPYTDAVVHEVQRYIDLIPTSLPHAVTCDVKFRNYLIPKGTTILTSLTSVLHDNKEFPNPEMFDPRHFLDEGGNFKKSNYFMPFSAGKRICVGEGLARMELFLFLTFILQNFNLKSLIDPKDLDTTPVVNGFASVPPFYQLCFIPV
Method: as §1

cytochrome P450 2C9 = target: T3, cytochrome P450 2C9 (Homo sapiens, UniProt P11712); test: CYP inhibition in human liver microsomes; assay type: in vitro ADME; conditions: 10 µM
T3 construct: Corning Cat # 452117); tissue Corning 452117; host or cells: human liver microsomes
T3 sequence (P11712 whole entry): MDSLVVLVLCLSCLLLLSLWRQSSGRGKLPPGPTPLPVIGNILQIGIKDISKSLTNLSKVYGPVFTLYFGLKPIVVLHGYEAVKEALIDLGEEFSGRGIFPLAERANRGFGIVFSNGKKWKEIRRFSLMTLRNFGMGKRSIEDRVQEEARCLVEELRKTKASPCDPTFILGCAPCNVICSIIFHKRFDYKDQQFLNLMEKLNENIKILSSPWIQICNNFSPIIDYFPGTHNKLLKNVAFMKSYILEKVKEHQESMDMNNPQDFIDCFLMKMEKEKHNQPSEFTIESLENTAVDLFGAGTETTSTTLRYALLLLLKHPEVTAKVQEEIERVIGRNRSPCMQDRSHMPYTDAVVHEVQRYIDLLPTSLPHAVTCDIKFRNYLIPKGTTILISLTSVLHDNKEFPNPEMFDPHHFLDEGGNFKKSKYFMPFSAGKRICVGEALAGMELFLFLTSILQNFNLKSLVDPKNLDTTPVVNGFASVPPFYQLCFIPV
Method: as §1

cytochrome P450 2D6 = target: T4, cytochrome P450 2D6 (Homo sapiens, UniProt P10635); test: CYP inhibition in human liver microsomes; assay type: in vitro ADME; conditions: 10 µM
T4 construct: Corning Cat # 452117); tissue Corning 452117; host or cells: human liver microsomes
T4 sequence (P10635 whole entry): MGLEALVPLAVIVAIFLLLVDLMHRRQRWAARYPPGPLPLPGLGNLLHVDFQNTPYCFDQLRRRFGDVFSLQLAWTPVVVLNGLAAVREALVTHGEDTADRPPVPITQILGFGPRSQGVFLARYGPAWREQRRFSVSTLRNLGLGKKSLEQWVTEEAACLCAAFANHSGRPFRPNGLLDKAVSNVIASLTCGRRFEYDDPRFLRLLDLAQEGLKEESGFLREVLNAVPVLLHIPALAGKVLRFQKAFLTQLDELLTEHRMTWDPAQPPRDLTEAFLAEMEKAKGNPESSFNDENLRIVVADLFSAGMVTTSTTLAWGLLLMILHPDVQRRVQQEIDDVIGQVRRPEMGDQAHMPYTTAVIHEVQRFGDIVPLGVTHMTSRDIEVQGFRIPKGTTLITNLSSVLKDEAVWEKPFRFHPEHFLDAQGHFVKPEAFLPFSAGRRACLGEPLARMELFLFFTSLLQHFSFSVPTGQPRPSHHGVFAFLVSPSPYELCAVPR
Method: as §1

cytochrome P450 3A4 = target: T5, cytochrome P450 3A4 (Homo sapiens, UniProt P08684); test: CYP inhibition in human liver microsomes; assay type: in vitro ADME; conditions: 10 µM
T5 construct: Corning Cat # 452117); tissue Corning 452117; host or cells: human liver microsomes
T5 sequence (P08684 whole entry): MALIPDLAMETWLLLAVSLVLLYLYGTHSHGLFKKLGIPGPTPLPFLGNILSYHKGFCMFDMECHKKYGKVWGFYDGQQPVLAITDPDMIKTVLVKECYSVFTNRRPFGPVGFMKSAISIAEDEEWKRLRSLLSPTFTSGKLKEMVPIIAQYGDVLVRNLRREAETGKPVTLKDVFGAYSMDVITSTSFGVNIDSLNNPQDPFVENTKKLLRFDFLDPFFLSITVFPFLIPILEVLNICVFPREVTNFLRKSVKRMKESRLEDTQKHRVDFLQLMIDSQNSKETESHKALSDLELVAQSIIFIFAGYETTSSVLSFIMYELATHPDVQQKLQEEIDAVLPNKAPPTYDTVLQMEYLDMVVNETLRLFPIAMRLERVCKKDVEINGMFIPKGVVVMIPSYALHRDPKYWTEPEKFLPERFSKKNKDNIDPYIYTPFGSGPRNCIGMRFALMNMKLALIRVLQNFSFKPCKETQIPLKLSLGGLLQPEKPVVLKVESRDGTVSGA
Method: as §1

[1] = Plasma protein binding (equilibrium dialysis); assay type: in vitro ADME; conditions: pH 7.4, Human
Method: This study was conducted by Equilibrium Dialysis at Wuxi (http://www.wuxi.com/). HT Dialysis plate (Model HTD 96 b, Cat# 1006) and the dialysis membrane (molecular weight cutoff of 12–14 kDa, Cat# 1101) were purchased from HT Dialysis LLC (Gales Ferry, CT). Human plasma (BioIVT, # […]2P2N) and CD-1 mouse plasma (Beijing Vital River Laboratory Animal Technology Co., Ltd.) were thawed prior to experiments under running cold tap water and centrifuged at 3320 × g for 5 min to remove any clots, and the pH was checked. Only plasma from pH 7.0 to 8.0 was used. The dialysis membrane was pretreated according to the manufacturer’s instructions. Test compounds and warfarin (control) were assayed at a final concentration of 2 μM. Aliquots of 50 μL loading plasma (matrix) containing test or control compound in triplicate were transferred to Sample Collection Plates, respectively. The samples were matched with opposite blank buffer to obtain a final volume of 100 μL with a volume ratio of plasma (matrix) to dialysis buffer (1:1, v-v) in each well immediately. […] Concentrations of test compounds in the starting solution (before dialysis), the plasma side of the membrane, and the buffer side of the membrane were quantified by LC-MS/MS using a peak area ratio of analyte/internal standard. The fraction of unbound, bound, and recovery were calculated. […]

[2] = test system: HL-60 cells in BALB/cA Rag2-/-γc-/- mice; test: Subcutaneous implant of in vitro pretreated cells, tumor volume; assay type: in vivo, mouse; set-up: key to Tumor volume: mm^3; V = D×d²/2 (D longest, d shortest diameter); conditions: for tumor growth: HL-60 cells pretreated in vitro 4 days, s.c.; for Tumor volume: HL-60 cells pretreated in vitro for 96 hours with 270 nM of CM-444 or 300 nM of CM-1758, injected subcutaneously, individual mice
Method: (§2) The human AML HL-60 and ML-2 cell lines were first pretreated in vitro daily with 270 and 260 nM of CM-444 or 300 and 210 nM of CM-1758, respectively, for 4 days. Prior to injection in mice, the cell differentiation induction by CM-444 and CM-1758 compounds was verified by measuring CD11b by flow cytometry, as described earlier. Then, 5 × 10^6 cells of cells, pretreated with CM-444, […], or vehicle (80% saline solution, 10% DMSO and 10% Tween 20) and diluted in 100 µL of saline solution, were implanted subcutaneously into the flank of female BALB/cA Rag2^−/−γc^−/− mice between 6 and 8 weeks of age (n = 8). Tumor size was analyzed every 2–3 days using the following method: […], where D and d corresponded to the longest and shortest diameter, respectively. The maximal tumor size/burden permitted by the Animal Care and Ethics Committee of the University of Navarra is 2000 mm^3. In some cases, this limit was reached on the last day of measurement and the mice were immediately euthanized.

[3] = test system: ML-2 cells in BALB/cA Rag2-/-γc-/- mice; test: as above; assay type: in vivo, mouse; set-up: key to Tumor volume: mm^3; V = D×d²/2 (D longest, d shortest diameter); conditions: for tumor growth: ML-2 cells pretreated in vitro 4 days, s.c.; for Tumor volume: ML-2 cells pretreated in vitro for 96 hours, injected subcutaneously, individual mice (Fig 3A)
Method: as §2

| Compound | P450S Inhibition (1A2) (cytochrome P450 1A2) | P450S Inhibition (2C19) (cytochrome P450 2C19) | P450S Inhibition (2C9) (cytochrome P450 2C9) | P450S Inhibition (2D6) (cytochrome P450 2D6) | P450S Inhibition (3A4) (cytochrome P450 3A4) | fraction unbound at 4 h, 2 µM [1] | tumor growth [2] | Tumor volume ([2]; day 0, in mm³) | Tumor volume ([2]; day 6) | Tumor volume ([2]; day 10, in mm³) | Tumor volume ([2]; day 13, in mm³) | tumor growth [3] | Tumor volume ([3]; day 0, in mm³) | Tumor volume ([3]; day 5, in mm³) | Tumor volume ([3]; day 7, in mm³) | Tumor volume ([3]; day 9) | Tumor volume ([3]; day 14, in mm³) | Tumor volume ([3]; day 16, in mm³) | other results |
| --- | --- | --- | --- | --- | --- | --- | --- | --- | --- | --- | --- | --- | --- | --- | --- | --- | --- | --- | --- |
| COc1cc2nc(-c3ccc(C)o3)cc(NCC3CCN(c4ncc(C(=O)NO)cn4)CC3)c2cc1OC [CM-444, 2-[4-[[[6,7-dimethoxy-2-(5-methyl-2-furyl)-4-quinolyl]amino]methyl]-1-piperidyl]pyrimidine-5-carbohydroxamic acid] | 58.8% | 5.6% | 0% | 10.8% | 50.8% | 0.011 ± 0.001 | tumor growth was significantly slower | 0 | 0 (3×) and 15.188 and 103.406 and 17.053 | 208.487 and 290.654 and 187.094 and 596.573 and 195.686 and 84.5628 and 14.1488 | 1082.75 and 1016.65 and 1040.97 and 728.909 and 903.701 and 1085.29 | tumor growth was significantly slower | 0 | 0 | 0 | 0 (5×) and 2.103 and 2.907 and 1.967 | 56.0772 and 79.1967 and 185.795 and 76.3392 and 203.44 and 147.179 and 18.725 and 23.4078 | 136.524 and 233.533 and 382.095 and 345.104 and 527.015 and 508.257 and 54.687 and 46.2692 | Tumor volume ([2]; day 8, in mm³): 74.6826 and 76.624 and 60.9783 and 227.696 and 55.1928 and 10.6605 and 0; Tumor volume ([3]; day 12): 0 (3×) and 15.5058 and 44.8074 and 14.292 and 43.7037 and 21.7346 |
| COc1cc2nc(-c3cc(C)oc3C)cc(NCC3CCN(c4ncc(C(=O)NO)cn4)CC3)c2cc1OC [CM-1758, 2-[4-[[[2-(2,5-dimethyl-3-furyl)-6,7-dimethoxy-4-quinolyl]amino]methyl] -1-piperidyl]pyrimidine-5-carbohydroxamic acid] | 55.4% | 23.7% | 12.2% | 13.1% | 46.9% | 0.01 | tumor growth was significantly slower | 0 | 14.6888 and 24.2273 and 0 (4×) and 45.3546 | 433.416 and 271.101 and 281.205 and 32.0688 and 347.688 and 41.4834 and 382.357 | 1283.62 and 996.2 and 1210.81 and 1389.27 and 1272.73 and 1452.46 and 1063.15 | tumor growth was significantly slower | 0 | 0 | 0 | 1.83 and 2.997 and 3.143 and 0 (4×) and 2.907 | 153.626 and 316.908 and 512.533 and 39.4763 and 33.8029 and 280.96 and 104.197 and 181.612 | 325.692 and 736.294 and 1010.72 and 175.673 and 76.8746 and 574.138 and 425.416 and 598.506 | Tumor volume ([2]; day 8): 103.082 and 62.3824 and 0 (2×) and 92.0448 and 53.4746 and 85.0123; Tumor volume ([3]; day 12, in mm³): 16.9153 and 75.9412 and 211.561 and 0 and 9.058 and 82.0914 and 8.878 and 27.0425 |
